The values that follow come from patent US8101634B2, “Bicyclic compounds and use as antidiabetics” (GlaxoSmithKline LLC, priority 2006, dated 2012).

One assay relates to C57BI6/J mice. Nature of the assay: Oral glucose tolerance test (OGTT) in normal mice one hour after oral administration. It is filed as in vivo. The note with it: for glucose area-under-the curve (AUC) over the 120 minute time course, result in words: OGTT in mice, vs vehicle; for % of Vehicle (glucose cAUC): OGTT one hour after p.o. dosing; for % of Vehicle (glucose cAUC) / Glucose cAUC (baseline corrected glucose area under the curve during OGTT): Examples 30 mg/kg, vildagliptin 10 mg/kg, n=10; for Glucose cAUC (baseline corrected glucose area under the curve during OGTT): fasted male C57BI6/J mice, OGTT 2 g dextrose/kg one hour after p.o. dosing, mean ± s.e.m., 120 min. The procedure:
In Vivo Effects of GPR119 Agonists on Incretin Hormone Release and Glucose Homeostasis in Mice
Vehicle or compounds were delivered orally via a gavage needle (p.o. at 10 mls/kg). The effect of the GPR119 agonists on glucose homeostasis was assessed by conducting an oral glucose tolerance test (OGTT; 2 g dextrose per kg body weight) one hour after administration of vehicle or test compounds. Whole blood glucose levels were determined prior to compound administration, immediately before and 10, 20, 30, 45, 60, 90 and 120 after glucose administration, using a Glucometer (Freestyle, Therasense).
Table 1 summarizes the glucose excursions during the OGTT as the average baseline corrected glucose area under the curve (cAUC; ±s.e.m.) from the animals in each treatment group.

The next assay has as its system C57/BI6 mice. Description: Plasma total GLP-1 and total GIP in normal mice one hour after oral administration. It is filed as in vivo. The note with it: for total circulating GIP levels, result in words / total circulating GLP-1 levels, result in words: 1 hr after giving the compound, compared to vehicle; for Total GIP (plasma) / Total GLP-1 (plasma) / Total GIP, fold change vs. Vehicle / Total GLP-1, fold change vs. Vehicle: C56BI6/J mice, one hour following oral administration of 30 mg/kg; for Total GIP (plasma) / Total GLP-1 (plasma): fasted, mean ± s.e.m. The procedure:
GPR119 Agonists Elevate GIP and GLP-1 in Normal Mice
Male C57/BI6 mice 10 weeks of age were fasted for 15 hrs and randomly grouped (n=6-10) to receive vehicle (0.5% HPMC/0.1% Tween) or a GPR119 agonists of the present invention at 30 mg/kg. 1 hr after compound administration blood was collected by cardiac-stick following iso-fluorane aneasthesia. Blood for analysis of plasma levels of total GLP-1 and total GIP was placed in a K2-EDTA containing tubes supplemented with a DPP-IV inhibitor to prevent degradation of the incretin hormones (30 µM final concentration). Total GLP-1 was determined using an assay from Meso Scale Discovery (Gaithersburg, Md.). GIP was determined using an ELISA assay from Linco (St. Charles, Mo.). For each treatment group Table 2 summarizes the average plasma levels of total GLP-1 (±s.e.m.) from the number of animals in each treatment group as indicated.
Table 3 summarizes the average plasma levels of total GIP (±s.e.m.) from the number of animals in each treatment group as indicated.

As to `CC(C)OC(=O)N1CCC(COc2ccc(-c3ccc(S(C)(=O)=O)cc3F)nc2)CC1` [Example 77, 1-Methylethyl 4-[({6-[2-fluoro-4-(methylsulfonyl)phenyl]-3-pyridinyl}oxy)methyl]-1-piperidinecarboxylate], in the assay on C57BI6/J mice, the “glucose area-under-the curve (AUC) over the 120 minute time course, result in words” value is recorded as “significantly lowered”; the “% of Vehicle (glucose cAUC)” value worked out at 21%; the “Glucose cAUC (baseline corrected glucose area under the curve during OGTT)” value amounted to 6884 ± 694 mg·min/dL. Besides, in the assay on C57/BI6 mice, the “total circulating GIP levels, result in words” value is reported as “increase”; the “total circulating GLP-1 levels, result in words” value is recorded as “increase”; the “Total GIP (plasma)” value stood at 182 ± 12 pg/mL; the “Total GLP-1 (plasma)” value was 7.5 ± 2.0 pg/mL. In the assay with C57/BI6 mice, the “Total GIP, fold change vs. Vehicle” value is reported as 2.2 and the “Total GLP-1, fold change vs. Vehicle” value was 3.3.

For `CC(C)c1noc(N2CCC(COc3ccc(-c4ccc(S(C)(=O)=O)cc4F)nc3)CC2)n1` [Example 83, 2-[2-Fluoro-4-(methylsulfonyl)phenyl]-5-[({1-[3-(1-methylethyl)-1,2,4-oxadiazol-5-yl]-4-piperidinyl}methyl)oxy]pyridine], in the assay on C57BI6/J mice, the “glucose area-under-the curve (AUC) over the 120 minute time course, result in words” value was “significantly lowered”; the “% of Vehicle (glucose cAUC)” value is listed as 23%; the “Glucose cAUC (baseline corrected glucose area under the curve during OGTT)” value worked out at 6754 ± 286 mg·min/dL. In the assay with C57/BI6 mice, the “total circulating GIP levels, result in words” value is reported as “increase”; the “total circulating GLP-1 levels, result in words” value is “increase”; the “Total GIP (plasma)” value worked out at 275 ± 29 pg/mL; the “Total GLP-1 (plasma)” value turned out to be 6.8 ± 1.8 pg/mL. In the assay with C57/BI6 mice, the “Total GIP, fold change vs. Vehicle” value is reported as 3.3 and the “Total GLP-1, fold change vs. Vehicle” value was 3.0.
